According to publication PMC7083851, “Extended pharmacodynamic responses observed upon PROTAC-mediated degradation of RIPK2” (Communications Biology, 2020):
Several values for one entry are separate records, joined by “and”; a condition that tells them apart may be missing. Equal values may be shown once. Read-outs that look alike come from different tables or passages of the source.

What was measured:
[1] = test system: MDP-induced TNFα release; assay: MDP-induced TNFα release in human whole blood; assay type: cell-based; conditions: inhibition of MDP-induced TNFα release
Procedure: (§1) Before treatment with compound or vehicle, THP1 cells, human and rat PBMCs were counted using Vi-Cell cell counter (Invitrogen) and adjusted to a final cell density of […] using complete growth medium. Cells or whole blood were treated with vehicle (0.1% DMSO) or fixed concentrations of compound up to 1 μM in half log unit increments and incubated for the time period indicated in the figure.
Where the assessment of cytokines was performed, L18-MDP was added to the cell culture media (1 μg/ml) or to the rat blood samples (100 ng/ml) and samples were incubated for up to 4 h. […]
Cytokine measurement assay: Cytokine levels were measured in rat plasma or rat PBMCs cell culture supernatants using rat V-Plex TNFα, in human plasma or human PBMCs cell culture supernatants with either TNFα tissue culture or 7-plex kit. Rat serum and tissues samples from the in vivo L18-MDP acute inflammation model were analyzed using the rat TNFα, Il-6 and IL-8 U-Plex kits. […] Levels of cytokines spontaneously released from human colon biopsies cell culture supernatants were measured using Human IL-1 beta/IL-1F2 DuoSet ELISA (Bio-techne), Human IL-6 ELISA (Immunotools) and Human TNF-alpha DuoSet ELISA (Bio-techne). […] The MSD plates were analyzed using the MSD sector imager 6000 plate reader and cytokines concentration (pg/ml) was obtained by using the MSD DISCOVERY WORKBENCH software version 4.0.12.1 […]

[2] = High-throughput precipitation solubility, chemiluminescent nitrogen-specific detection (CLND); assay type: physicochemical; conditions: high-throughput
[3] = test system: L18-MDP-induced TNFα release; assay: L18-MDP-induced cytokine release (TNFα, IL1β, IL-6, IL-8, IL-10) in human PBMCs; assay type: cell-based; conditions: for IC50: Homo sapiens, PBMC
Procedure: PBMCs were isolated from leukodepletion filter from platelet aphaeresis supplied by National Health System Blood and Transplant—NHSBT Apheresed at NHBST.
as §1
Where the assessment of cytokines was performed, L18-MDP was added to the cell culture media (1 μg/ml) or to the rat blood samples (100 ng/ml) and samples were incubated for up to 4 h. […] Samples were them spun down at 1000 g and the cell culture supernatant, plasma or serum were collected for cytokines assessment, while cell pellets were used for RIPK2 and/or cIAP1, cIAP2, and XIAP levels analysis via immunoblotting.
(§2) Cytokine measurement assay: Cytokine levels were measured in rat plasma or rat PBMCs cell culture supernatants using rat V-Plex TNFα, in human plasma or human PBMCs cell culture supernatants with either TNFα tissue culture or 7-plex kit. Rat serum and tissues samples from the in vivo L18-MDP acute inflammation model were analyzed using the rat TNFα, Il-6 and IL-8 U-Plex kits. All kits provided by Meso Scale Discovery (MSD). Levels of cytokines spontaneously released from human colon biopsies cell culture supernatants were measured using Human IL-1 beta/IL-1F2 DuoSet ELISA (Bio-techne), Human IL-6 ELISA (Immunotools) and Human TNF-alpha DuoSet ELISA (Bio-techne). All samples were processed accordingly to the manufacturer’s instructions. The MSD plates were analyzed using the MSD sector imager 6000 plate reader and cytokines concentration (pg/ml) was obtained by using the MSD DISCOVERY WORKBENCH software version 4.0.12.1
In vitro experimental data were analyzed using a 4-parameter logistic equation in GraphPad Prism 5.0.4. to generate an estimate of the half-maximal concentration and maximal degradation, DC50 and Dmax value respectively, for concentration-degradation relationships. Cytokine levels were analyzed in a similar manner to yield IC50 and Imax values. […] Where analysis to a sigmoidal relationship was not possible, the data points are shown as mean ± s.e.m.

[4] = biological target: RIPK2 (Homo sapiens, UniProt O43353); assay: RIPK2 fluorescence polarisation binding assay
Sequence of RIPK2 (Homo sapiens, UniProt O43353) (O43353 whole entry): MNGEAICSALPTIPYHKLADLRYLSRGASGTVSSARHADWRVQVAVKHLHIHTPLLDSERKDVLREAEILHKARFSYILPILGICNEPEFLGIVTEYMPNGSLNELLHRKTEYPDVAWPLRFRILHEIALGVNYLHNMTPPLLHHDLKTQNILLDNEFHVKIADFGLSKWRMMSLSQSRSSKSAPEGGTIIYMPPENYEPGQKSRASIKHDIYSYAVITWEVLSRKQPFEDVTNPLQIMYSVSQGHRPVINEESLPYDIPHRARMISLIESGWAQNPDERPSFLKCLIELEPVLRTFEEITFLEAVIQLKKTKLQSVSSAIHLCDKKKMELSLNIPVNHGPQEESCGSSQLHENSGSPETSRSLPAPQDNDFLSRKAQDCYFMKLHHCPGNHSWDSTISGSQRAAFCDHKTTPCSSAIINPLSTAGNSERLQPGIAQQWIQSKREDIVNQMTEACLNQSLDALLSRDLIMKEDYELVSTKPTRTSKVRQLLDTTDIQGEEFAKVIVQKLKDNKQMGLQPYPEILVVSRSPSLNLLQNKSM

[5] = test system: Caspases 3 and 7; assay: Caspase 3/7 activation in human PBMCs (Caspase-Glo 3/7), 24 h
[6] = biological target: T1, RIPK2 (Rattus norvegicus, UniProt G3V783); assay: RIPK2 levels in colon of dosed rats (Western blot); assay type: in vivo; conditions: for RIPK2 level in colon (fig 5f): vehicle control 0.0136-0.0240
T1 construct: from tissue; host or cells: terminal colon samples of dosed rats
T1 sequence (G3V783 1-539): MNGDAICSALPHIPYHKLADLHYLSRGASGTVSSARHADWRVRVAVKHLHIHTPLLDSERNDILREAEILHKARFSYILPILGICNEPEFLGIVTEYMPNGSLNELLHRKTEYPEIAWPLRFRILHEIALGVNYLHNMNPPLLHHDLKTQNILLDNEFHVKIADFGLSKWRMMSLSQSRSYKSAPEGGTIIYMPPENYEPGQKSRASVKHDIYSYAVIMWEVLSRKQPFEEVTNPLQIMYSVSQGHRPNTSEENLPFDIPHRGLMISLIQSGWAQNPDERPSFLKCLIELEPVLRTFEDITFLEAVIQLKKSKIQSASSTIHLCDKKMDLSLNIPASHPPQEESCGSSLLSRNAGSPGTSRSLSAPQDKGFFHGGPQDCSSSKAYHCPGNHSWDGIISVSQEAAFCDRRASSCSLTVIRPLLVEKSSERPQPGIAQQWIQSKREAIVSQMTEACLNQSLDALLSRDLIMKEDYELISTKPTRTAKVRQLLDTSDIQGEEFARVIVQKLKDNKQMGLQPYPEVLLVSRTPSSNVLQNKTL
Procedure: Rat PK/PD studies: On arrival, all rats were housed in a plastic solid bottom cage in groups of 2–3 with access to food and water ad libitum and under a 12 h light–dark cycle. Male CD or Wistar Han rats (7–9 weeks old, Charles River UK Ltd.) were randomly allocated to treatment groups upon arrival. Female CD rats (7–8 weeks old on arrival, Charles River Ltd.) were placed into groups using a randomization schedule based on body weight prior to the study start. All animals were acclimatized for a minimum of one week prior to the experiment commencing.
Ex vivo stimulation of rat blood with L18-MDP for PD: PPD blood samples taken prior to PROTAC administration or at fixed timepoints post PROTAC administration through the course of the study, were treated ex vivo with 100 ng/mL L18-MDP (Invivogen) or vehicle (0.1% DMSO) and incubated for 4 h. Following centrifugation, plasma was collected for cytokines analysis as detailed in cytokines assay section. Additionally, RIPK2 levels were determined in PBMCs isolated from blood and where collected, in sampled colon tissue as described in the text.
(§3) For in vivo studies, RIPK2:tubulin ratios and cytokine levels from each individual experiment were analysed either using a One-way ANOVA with Dunnet’s post-test or a two way ANOVA using GraphPad Prism 5.0.4 to determine statistical significance with 95% confidence levels.

[7] = test system: L18-MDP-induced cytokine release; assay: In vivo L18-MDP acute inflammation model, spleen cytokines; parameters: species or system rat; cytokine level (fig 6d) / cytokine level (fig 6e) / cytokine level (fig 6f): unit not given here; conditions: for cytokine level (fig 6e) / cytokine level (fig 6f) / cytokine level (fig 6d): spleen, individual rats, beside L18-MDP control
Procedure: In vivo L18-MDP administration to rodents results in an acute inflammatory response characterised by the rapid production of inflammatory cytokines. […]. […]. Blood concentrations of 6 and 7 tracked closely and dropped below the LLQ after 24 h.
. Cytokine levels were determined in serum generated from the terminal blood samples and in tissue lysates as detailed below.
as §2, §3

## CN[C@@H](C)C(=O)N[C@H](C(=O)N1CCC[C@H]1c1nc(C(=O)c2ccc(F)cc2)cs1)C1CCN(C(=O)c2cnc(N3CCN(CCOc4cc5ncnc(Nc6n[nH]c(C)c6C)c5cc4S(=O)(=O)C(C)(C)C)CC3)nc2)CC1 [PROTAC 4]
[1]
  hWB MDP pIC50 ± SEM (n): 7.7 ± 0.05 (4)
[2]
  solubility: > 311 µM
[3]; L18-MDP-induced TNFα release, human PBMCs, 6 h
  hPBMC MDP pIC50 ± SEM, 6 h (n = 3): 8.0 ± 0.5
[4]
  RIPK2 FP pIC50 ± SEM (n): 6.6 ± 0.02 (8)

## CN[C@@H](C)C(=O)N[C@H](C(=O)N1C[C@@H](NC(=O)c2cnc(N3CCN(CCCOc4cc5ncnc(Nc6n[nH]c(C)c6C)c5cc4S(=O)(=O)C(C)(C)C)CC3)cn2)C[C@H]1C(=O)Nc1c(F)cccc1F)C(C)(C)C [PROTAC 6]
[5]
  effect on caspases 3/7 activation, in words: no
[6]; 0.05 mg/kg, individual rats 1-4
  RIPK2 level in colon (fig 5f): 0.0091 and 0.0088 and 0.0071 and 0.0105
[6]; 0.5 mg/kg, individual rats 5-8
  RIPK2 level in colon (fig 5f): 0.0034 and 0.0025 and 0.0038 and 0.0043
[6]; rat, 0.05 and 0.5 mg/kg QD SC, Western blot
  RIPK2 in terminal colon samples, in words: significant degradation of RIPK2
[3]; 6 h, read-out: hPBMC MDP pIC50 ± SEM, 6 h (n = 3) (converted)
  IC50: 0.501 nM
[3]; read-out: pIC50 IL1β release following L18-MDP-stimulation (converted)
  IC50: < 1.58 nM
[3]; read-out: pIC50 IL-6 release following L18-MDP-stimulation (converted)
  IC50: < 1.58 nM
[3]; read-out: pIC50 IL-10 release following L18-MDP-stimulation (converted)
  IC50: < 1.58 nM
[3]; read-out: pIC50 TNFα release following L18-MDP-stimulation (converted)
  IC50: < 1.58 nM
[7]; rat, 0.3 mg/kg SC, intravenous L18-MDP challenge
  inhibition of TNFα and IL-8 in spleen, in words: short-lived and returned to basal levels by the third day post-dose
[7]; time 6 h
  cytokine level (fig 6e): 14.13 and 34.14 and 14.02 and 19.73 and 14.97
  cytokine level (fig 6f): 4.45 and 4.35 and 4.34 and 3.21 and 3.53
  cytokine level (fig 6d): 2.77 (2×) and 3.58 and 3.26 and 3.28
[7]; time 24 h
  cytokine level (fig 6e): 45.7 and 38.46 and 58.3 and 40.91 and 52.98
  cytokine level (fig 6f): 4.32 and 2.78 and 5.01 and 2.54 and 9.72
  cytokine level (fig 6d): 4.43 and 2.62 and 4.18 and 4.64 and 5.01
[7]; time 72 h
  cytokine level (fig 6e): 111.22 and 59.85 and 73.1 and 99 and 52.1
  cytokine level (fig 6f): 75.27 and 51.34 and 57.62 and 94.65 and 61.7
  cytokine level (fig 6d): 45 and 42.87 and 29.6 and 47.75 and 33.69
[7]; time 240 h
  cytokine level (fig 6e): 97.65 and 76.46 and 96.01 and 80.21 and 59.48
  cytokine level (fig 6f): 72.27 and 99.15 and 93.27 and 64.45 and 48.45
  cytokine level (fig 6d): 65.15 and 73.34 and 58.46 and 1.72 and 47.46
[7]; time 408 h
  cytokine level (fig 6e): 146.67 and 133.23 and 180.63 and 211.01 and 68.17
  cytokine level (fig 6f): 79.92 and 69.55 and 103.81 and 98.05 and 47.92
  cytokine level (fig 6d): 41.62 and 64.64 and 76.25 and 77.33 and 37.06
